Experimental findings from PMC10060569 (Frontiers in Pharmacology, 2023) are described below.

SMILES strings stand for the structures. Where two headings read alike, the source gives them in different places.

This test addresses T1, hP2X2/3R (Homo sapiens, UniProt P56373+Q9UBL9).
T1 construct: expressed in transfected cells; host or cells: Xenopus laevis oocytes (co-injection of cRNAs)
T1 sequence (Q9UBL9 1-471): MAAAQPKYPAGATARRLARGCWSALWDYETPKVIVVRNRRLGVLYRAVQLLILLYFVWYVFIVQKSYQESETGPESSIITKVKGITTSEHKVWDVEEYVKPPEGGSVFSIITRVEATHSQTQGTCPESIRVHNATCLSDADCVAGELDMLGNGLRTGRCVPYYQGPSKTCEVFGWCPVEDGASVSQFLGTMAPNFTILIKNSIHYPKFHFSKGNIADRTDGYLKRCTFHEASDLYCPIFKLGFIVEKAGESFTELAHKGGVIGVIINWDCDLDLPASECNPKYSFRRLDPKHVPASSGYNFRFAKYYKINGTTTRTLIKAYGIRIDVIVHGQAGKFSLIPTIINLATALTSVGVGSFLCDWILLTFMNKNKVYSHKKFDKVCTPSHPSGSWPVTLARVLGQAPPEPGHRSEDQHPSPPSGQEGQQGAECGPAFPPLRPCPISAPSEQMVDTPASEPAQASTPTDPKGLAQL
T1 sequence (P56373 1-397): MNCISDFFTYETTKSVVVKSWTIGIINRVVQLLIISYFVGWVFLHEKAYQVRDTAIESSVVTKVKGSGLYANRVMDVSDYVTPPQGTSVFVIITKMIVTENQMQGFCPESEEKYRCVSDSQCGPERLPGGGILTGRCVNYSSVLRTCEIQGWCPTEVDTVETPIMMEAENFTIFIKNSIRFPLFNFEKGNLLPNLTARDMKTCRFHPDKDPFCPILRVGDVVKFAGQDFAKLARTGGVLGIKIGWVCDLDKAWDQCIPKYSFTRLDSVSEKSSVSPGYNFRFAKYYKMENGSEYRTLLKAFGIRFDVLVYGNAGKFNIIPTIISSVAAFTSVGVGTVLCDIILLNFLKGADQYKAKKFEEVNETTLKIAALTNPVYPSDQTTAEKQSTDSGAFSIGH
Put plainly: TEVC of α,β-meATP-induced currents, heteromeric hP2X2/3R in X. laevis oocytes (steady-state protocol). In kind it is cell-based. The source says:
Oocyte expression plasmids encoding the wild-type (wt) and N-terminally His-tagged (His-) fusion constructs of the hP2X2R, hP2X3R, hP2X4R, and hP2X7R, and the mutant His-^20RMVL^23KVIV^23S^26N-hP2X1R, S^15V-rP2X3R, and His-S^15V-hP2X3R were the same as used in previous research ([Hausmann et al., 2006]; [Wolf et al., 2011]; [Hausmann et al., 2014]; [Obrecht et al., 2019]). In most cases, the N-terminal His-tagged variants of P2XRs were used here and in the previous studies to allow biochemical analyses on affinity-purified proteins using the same constructs. Although this was not required for the present study, it allows for better comparability with our previous studies. Capped cRNAs of different P2XRs were already available in the research group or were synthesized as previously described ([Schmalzing et al., 1991]; [Stolz et al., 2015]). cRNA was injected into collagenase-defolliculated X. laevis oocytes in aliquots of 41 nl or 23 nl (see Supplementary Table S1 for the amount of cRNA used for expression of the indicated P2XR) using a Nanoliter 2000 injector (World Precision Instruments, Sarasota, United States of America) as described previously ([Hausmann et al., 2014]; [Stolz et al., 2015]; [Obrecht et al., 2019]). To express the heteromeric hP2X2/3 receptor, cRNAs encoding His-hP2X2R and wt-hP2X3R were coinjected at a ratio (w/w) of 1:6. Oocytes were stored at 19°C in an oocyte ringer solution (ORi^+) containing 90 mM NaCl, 1 mM KCl, 1 mM CaCl2, 1 mM MgCl2, and 10 mM HEPES (Carl Roth, Karlsruhe, Germany) adjusted to pH 7.4 with NaOH and supplemented with 50 μg/ml gentamicin (AppliChem, Darmstadt, Germany). The procedures followed for the maintenance of and the surgical treatment for X. laevis adults were approved by the governmental animal care and use committee of the State Agency for Nature, Environment, and Consumer Protection (LANUV, Recklinghausen, Germany; reference no. 81-02.04.2019. A355), in compliance with Directive 2010/63/EU of the European Parliament and of the Council on the protection of animals used for scientific purpose.
Ion currents mediated by P2X receptors were evoked by the indicated concentration of ATP or α,β-meATP and were recorded 1 or 2 days after cRNA injection at ambient temperature at a holding potential of −60 mV by two-electrode voltage clamp (TEVC) as previously described ([Hausmann et al., 2006]). Calcium-free ORi^− solution (90 mM NaCl, 1 mM KCl, 2 mM MgCl2, 10 mM HEPES, pH 7.4) was used to avoid bias due to calcium-activated chloride channels (CaCC) endogenously expressed in X. laevis oocytes ([Miledi, 1982]; [Methfessel et al., 1986]). For recordings of wt-hP2X7R, the composition of the ORi^− solution was modified according to protocols described previously and contained 100 mM NaCl, 2.5 mM KCl, 1 mM MgCl2, 5 mM HEPES, pH 7.4 ([Klapperstück et al., 2000]). The oocytes were continuously superfused with ORi^− by gravity flow (5–10 ml/min). The agonists ATP or α,β-meATP and the investigated NSAIDs were diluted in ORi^− on the day of the recording. The following agonist concentrations were used for the different P2X subtypes: 1 μM ATP (hP2X1R mutant, hP2X3R, rP2X3R, S^15V-hP2X3R, and S^15V-rP2X3R); 10 μM ATP (hP2X2R and hP2X4R); 300 μM free ATP^4- (hP2X7R); and 1 μM α,β-meATP (hP2X2/3R). […]

For orientation: IC50 means the point on the concentration scale where inhibition reaches its midpoint. The term inhibition denotes the change of the read-out against control, counted positive when it falls. With `O=C(O)Cc1ccccc1Nc1c(Cl)cccc1Cl` [Diclofenac, diclofenac], the concentration for half-maximal inhibition (IC50) (1 µM α,β-meATP, steady-state protocol, X. laevis oocytes) is 76.7 µM. The “reduction of current amplitude in the presence of 3–10 µM diclofenac” value (3–10 µM diclofenac) is listed as 20%–30%. The inhibition at 30 µM is, setting by setting: (read-out: % inhibition by 30 µM diclofenac of 1 µM α,β-meATP-induced current) 44.8%; (read-out: % inhibition by 30 µM diclofenac of 30 µM α,β-meATP-induced current) 25.1%. Besides, where the note is “read-out: Max. inhibition at 1 mM”, the inhibition at 1000 µM was 97%.
